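These data come from cells grown in 96-well plates and exposed to compound for 48 hours at five concentrations. Abbreviation: GI50, concentration required for 50% inhibition of growth. TGI marks complete inhibition of growth.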
How the values were obtained:
Test in all cases: DTP human tumour cell line panel, 48 h
786-0 renal = test system: 786-0 renal
A549 NSCLC = test system: A549 NSCLC
HCT-15 colon = test system: HCT-15 colon
KM12 colon = test system: KM12 colon
NCI-H23 lung = test system: NCI-H23 lung
OVCAR-3 ovarian = test system: OVCAR-3 ovarian
PC-3 prostate = test system: PC-3 prostate
SW-620 colon = test system: SW-620 colon
TK-10 renal = test system: TK-10 renal
U251 CNS = test system: U251 CNS

SMILES | GI50 (786-0 renal) [µM] | TGI (786-0 renal) [µM] | GI50 (A549 NSCLC) [µM] | TGI (A549 NSCLC) [µM] | GI50 (HCT-15 colon) [µM] | TGI (HCT-15 colon) [µM] | GI50 (KM12 colon) [µM] | TGI (KM12 colon) [µM] | GI50 (NCI-H23 lung) [µM] | TGI (NCI-H23 lung) [µM] | GI50 (OVCAR-3 ovarian) [µM] | TGI (OVCAR-3 ovarian) [µM] | GI50 (PC-3 prostate) [µM] | TGI (PC-3 prostate) [µM] | GI50 (SW-620 colon) [µM] | TGI (SW-620 colon) [µM] | GI50 (TK-10 renal) [µM] | TGI (TK-10 renal) [µM] | GI50 (U251 CNS) [µM] | TGI (U251 CNS) [µM]
Cn1cc(C2=C(Nc3ccccc3)C(=O)NC2=O)c2ccccc21 | > 25 | > 25 | > 25 | > 25 | 24.8 | > 25 | 17 | > 25 | > 25 | > 25 | > 25 | > 25 | > 25 | > 25 | > 25 | > 25 | > 25 | > 25 | > 25 | > 25
Cc1cc(O)c(C2=NN(c3ccc(S(N)(=O)=O)cc3)C(/C=C/c3ccccc3)C2)cc1Cl (stereo not given) | 4.09 | 12.5 | 11 | 30.8 | 18.9 | > 100 | 11.7 | 34.8 | 1.68 | 12.5 | 11.5 | 28.4 | 3.15 | 11.5 | 11.7 | 31.3 | 14.8 | 29.9 | 3.79 | 15.6
N#CC(C#N)=C/C=C(\Sc1ccc(F)cc1Cl)c1ccc(Cl)cc1 | 0.523 | 2.39 | 2.22 | 12.5 | 0.425 | 1.58 | 0.714 | 2.79 | 0.449 | 2.49 | 0.762 | 2.64 | 1.42 | 10.4 | 0.387 | 3.82 | 0.5 | 2.08 | 0.414 | 1.69
CC1OC(CC(=O)O)CC2=C1C(=O)c1c(O)cccc1C2=O (stereo not given) | – | 0.336 | – | 7.96 | – | 0.183 | – | 3.49 | – | 1.51 | – | 0.299 | – | 0.817 | – | 0.207 | – | 1.82 | – | 2.38
Cc1ccc(-n2nnnc2-c2cnc(N3CCOCC3)nc2-c2cccc(C(F)(F)F)c2)cc1 | 1.89 | > 50 | 2.26 | > 50 | 3 | 8.57 | 1.26 | 3.59 | 1.36 | 4.11 | 1.05 | 2.81 | 1.44 | 3.93 | 1.93 | > 25.1 | 1.54 | 4.56 | 3.52 | > 10.6
O=C(CCCN1CCC(C(O)c2ccc(F)cc2)CC1)c1ccc(F)cc1 (stereo not given) | – | 96.6 | – | 123 | – | 123 | – | 116 | – | 134 | – | 116 | – | 99.6 | – | 123 | – | 86.8 | – | 106
CC1(C)O[C@@H]2C[C@H]3[C@@H]4C[C@H](F)C5=CC(=O)C=C[C@]5(C)[C@@]4(F)[C@@H](O)C[C@]3(C)[C@]2(C(=O)CO)O1 | – | > 100 | – | > 100 | – | > 100 | – | > 100 | – | > 100 | – | > 100 | – | > 100 | – | > 100 | – | > 100 | – | > 100
CC(C)(C)N/N=C(\C(=O)NC1=C(Cl)C(=O)c2ccccc2C1=O)C1C=CCS1(=O)=O (stereo not given) | – | 54 | – | 38.5 | – | 22.9 | – | > 100 | – | 24.2 | – | 9.38 | – | 62.2 | – | > 100 | – | > 100 | – | > 100
O=C1c2cccnc2C(=O)c2c1c(C(=O)OCCCN1CCCCC1)c1ccccn21 | < 0.01 | < 0.01 | < 0.01 | < 0.0182 | 0.01 | 0.422 | < 0.0185 | 0.165 | < 0.01 | 0.026 | < 0.0218 | 0.156 | < 0.0183 | 0.389 | < 0.01 | < 0.0192 | 0.0272 | 4.18 | < 0.01 | 0.0372
Cc1ccc(C2NC(=O)c3ccccc3N2)c(C)c1 (stereo not given) | – | 97.5 | – | > 100 | – | > 77 | – | > 100 | – | > 87 | – | 4.68 | – | > 40.2 | – | > 100 | – | > 100 | – | > 39.5
CC(=O)OC1=CC2(OC(C)=O)CC(C)(C)C1C1C(=O)C=CC(=O)C12 (stereo not given) | – | > 81.7 | – | > 100 | – | > 100 | – | > 100 | – | > 100 | – | > 100 | – | > 100 | – | > 100 | – | > 100 | – | > 100
COc1cc(C)c2sc3ccccc3c(=O)c2c1NCCN(C)C | 8.34 | 22.2 | 4.05 | 15.7 | 3.13 | 11.2 | 5.22 | 18.9 | 13.1 | 28 | 10.5 | 23.9 | 4.28 | 17.4 | 3.39 | 14.5 | 8.83 | 21.2 | 3.66 | 14.1
CC1=Nc2c([nH]c(=S)[nH]c2=O)NC(c2c(Cl)cccc2Cl)C1 (stereo not given) | – | 1.76 | – | 15 | – | 8.67 | – | 4.51 | – | 7.4 | – | 4.16 | – | 2.6 | – | 2.05 | – | 18 | – | 2.32

— PubChem BioAssay (NCI)
